Like-named read-outs stand apart in the source and are kept apart here. Values belong to the compound of their own block, whether it stands above or below them.
Columns and labels:
[1] = Solubility as observed during the studies (in words); type: physicochemical; settings: for solubility in the aqueous phase (in words): HEPES-buffered aqueous phase pH 7.4 of log D7.4 determination, ligands and their Fe^3+ complexes
[2] = cited from earlier work
[3] = DPPH radical scavenging assay; type: biochemical
[4] = Trolox equivalent antioxidant capacity (TEAC) assay, ABTS radical cation decolorization; type: biochemical; settings: for time to complete reaction with ABTS radical cation: TEAC assay
Source text: 2,2′-Azinobis-(3-ethylbenzothiazoline)-6-sulfonic acid radical cation (ABTS˙^+) is a blue/green chromophore that absorbs at 745 nm and was produced through the reaction between ABTS and potassium persulfate. Addition of antioxidants to the radical cation reduces it to the non-absorbing ABTS to an extent and on a time-scale depending on its antioxidant activity, the concentration of the antioxidant and the duration of the reaction. […] The TEAC value for a given ligand at a given time point was obtained by dividing the corresponding slope of the ligand by the slope of Trolox (Table 3 and Fig. S21 ^†).
TEAC values were calculated according to an ABTS radical cation decolorization assay. 2,2′-Azinobis-(3-ethylbenzothiazoline-6-sulphonic acid diammonium salt (ABTS, 7 mM) was dissolved in water (10 mL) and exposed to potassium persulphate (2.45 mM). After a 16-hour incubation period (dark, room temperature), the resulting solution was diluted with HPLC-grade methanol such that the absorbance of the solution at 745 nm was around 0.7. ABTS˙^+ solution (2 mL) was loaded into a cuvette and the absorbance was recorded at 745 nm. 50 μL of various concentrations of the given ligand solution were then added, the cuvette was vigorously shaken and the absorbance was measured after 1, 3 and 6 minutes. Data were plotted such that for each time point a linear system of percentage of inhibition of ABTS˙^+versus concentration of ligand was obtained. The slope of each plot was normalised with respect to that of Trolox to give the Trolox equivalence value for each time point.

[5] = test system: SH-SY5Y neuroblastoma cells; design: method as in earlier work; settings: studied previously ref 27; cited from earlier work
[6] = Protonation constants (log K) of ligands by UV-visible spectrophotometric titration vs. pH; type: physicochemical; settings: for log K LH2 / log K LH: Solvent H2O; for log K LH: I = 0.1 M (NaClO4), T = 25.0 °C; for pKa: value used as input for BBB score (Tables S1–S6)
Method: For ligand 10a, protonation constants of the ligand were studied in both media while complexation studies were carried out only in the mixed solvent for solubility reasons.

[7] = Distribution coefficients (log D7.4), Shake Flask method, n-octanol / HEPES buffer pH 7.4; type: physicochemical; settings: free ligand, n-octanol / HEPES buffered aqueous phase pH 7.4
Method: The method is based on the principle that the solute's distribution is determined as a ratio of concentrations of the test compound in a solution mixture, consisting of two immiscible phases, namely n-octanol and an aqueous buffer (HEPES buffer, pH 7.4).

[8] = test system: SH-SY5Y neuroblastoma cells; test: Neuroprotection against 6-OHDA insult, MTT cell viability assay; type: cell-based, Human; settings: for neuroprotection against 6-OHDA (in words): 0–300 μM, pre-incubation 1 hour, 6-OHDA 24 hours; for % 6-OHDA Rescue (at 100 µM): 100 µM dose of the compound; for cell viability restored: human, 24 h
Method: We next evaluated the neuroprotective ability of these compounds when cells are exposed to 6-hydroxydopamine (6-OHDA), a neurotoxin that emulates various pathological aspects of PD in dopaminergic neurons, in both in vitro and in vivo disease models, including mitochondrial impairment and cell death.[26c,28,46] […] Cells were pre-treated with the compound of interest at different concentrations for 1 hour prior to treatment with 6-OHDA ([…]) for a further 24 hours.
Human SH-SY5Y neuroblastoma cells (ATCC® CRL-2266™) were plated at 20 000 cells per well in 96-well microplates, and left to adhere overnight to the well surface, in cell culture media composed of 50% advanced minimum essential medium (MEM), 50% Ham's F12 medium, 1% L-glutamine, that was supplemented with 2% fetal bovine serum (FBS). All media components were obtained from Thermo Fisher Scientific (Gibco™).
Each well's media was then replaced with 100 μL per well of serum free media, containing ascending concentrations of the novel compounds that ranged from 0–300 μM. Cells were pre-incubated with the compounds for 1 hour at 37 °C, 5% CO2, before exposure to 50 μM 6-OHDA (apart from the wells containing non-toxin treated control cells) for a further 24 hours. Just before application to cells, a 10 mM 6-OHDA hydrochloride (Sigma-Aldrich) stock concentration was prepared, by dissolving the powder in 1 mL distilled water containing 0.1% ascorbic acid (Sigma-Aldrich); the solution was protected against light and kept on ice until use.
After a further 24 hours incubation period at 37 °C in a 5% CO2 environment, cell viability was measured using the tetrazolium dye, 3-(4,5-dimethylthiazol-2-yl)-2,5-diphenyltetrazolium bromide (MTT). For this colorimetric assay, 11 μL of MTT (5 mg mL^−1) was added to the 100 μL media per well, and then incubated for 3 hours at 37 °C, 5%, CO2. For lysing the cells, an equal volume of solubilizing solution (dimethyl sulfoxide (DMSO)) was added to each well and mixed thoroughly. Absorption was measured at a wavelength of 570 nm by using a scanning multiwell spectrophotometer (Sunrise Tecan, Durham, NC, USA). Cell viability was calculated as a percentage compared to the untreated (not receiving toxin or drug compound) control wells. Data is expressed as the means ± the SEM of three independent experiments. Statistical analyses of the MTT-derived cell viability data were performed using Prism software (v3, GraphPad, San Diego, CA, USA) and using a one-way ANOVA, followed by a Dunnett's post-hoc test for multiple comparisons. Results were considered significant at P < 0.05.

[9] = cited from earlier work; remark: listed apart in the source
[10] = Fe^3+ complexation: stability constants (log β) and sequestering ability (pL0.5) by spectrophotometric titration; settings: solvent H2O; for log β FeL / log β FeL2 / log β FeL3: Fe^3+ complex; for pL0.5: towards Fe^3+ at pH 7.4, [Fe^3+] = 10^−9 M
[11] = design: method as in PMID 32078022; settings: cited from earlier work
[12] = value used as input for BBB score (Tables S7–S9), previously studied ligands ref 28

solubility in water (in words) [1]: low water solubilities
melting point: 176.8 to 179 °C
SMILES: COc1ccc(-c2cncc(=O)n2O)cc1 [Ligand 10b, 1-Hydroxy-6-(4-methoxyphenyl)-pyrazin-2(1H)-one]

SMILES: CC(=O)N(O)CCCCCNC(=O)CCC(=O)N(O)CCCCCNC(=O)CCC(=O)N(O)CCCCCN [DFO, desferrioxamine, reference compound]
log β ([2]; iron affinity ref 57a,b): 30.5

SMILES: Cc1c(O)c(=O)ccn1C [DFP 1, deferiprone, reference compound]
EC50 ([3]; methanol, steady-state): 8 µg/mL
EC50 ([3]; read-out: EC50): 58 µM
time to complete reaction with ABTS radical cation [4]: ≤ 1 min
Antioxidant activity as TEAC ([4]; t = 1 min): ∼0.7 mM
Antioxidant activity as TEAC ([4]; t = 3 min): ∼0.7 mM
Antioxidant activity as TEAC ([4]; t = 6 min): ∼0.7 mM
% 6-OHDA Rescue (at 100 µM) [5]: 117%

log K LH2 [6]: 0.04(2)
log K LH [6]: 4.58(4)
pKa [6]: 4.58
logD [7]: -1.73
log β FeL [10]: 10.38(6)
log β FeL2 [10]: 18.1(4)
log β FeL3 [10]: 23.85(1)
pL0.5 [10]: 4.36
SMILES: Cc1ncc(=O)n(O)c1C [Ligand 6a, 1-Hydroxy-5,6-dimethylpyrazin-2(1H)-one]
Antioxidant activity as TEAC ([4]; t = 1 min): 0.08 mM
Antioxidant activity as TEAC ([4]; t = 3 min): 0.16 mM
Antioxidant activity as TEAC ([4]; t = 6 min): 0.22 mM
neuroprotection against 6-OHDA (in words) [8]: fully rescued
% 6-OHDA Rescue (at 100 µM) [8]: 100%
cell viability restored [8]: ≥ 89%
pKa ([9]; published previously ref 35): 4.7
log β3 ([2]; 1 : 3 Fe^3+ complex, different experimental conditions ref 35): 20.2

pKa [6]: 5.96
solubility in the aqueous phase (in words) [1]: low solubilities
solubility in water (in words) [1]: very low solubility in water
SMILES: Cc1nc(Cc2ccc(O)cc2)c(=O)n(O)c1C [Ligand 6d, 1-Hydroxy-3-(4-hydroxybenzyl)-5,6-dimethylpyrazin-2(1H)-one]
Antioxidant activity as TEAC ([4]; t = 1 min): 0.41 mM
Antioxidant activity as TEAC ([4]; t = 3 min): 0.55 mM
Antioxidant activity as TEAC ([4]; t = 6 min): 0.64 mM
% 6-OHDA Rescue (at 100 µM) [8]: 64%

log K LH2 [6]: ∼−0.6
log K LH [6]: 3.18(1)
pKa [6]: 3.18
logD [7]: -1.2
solubility in water (in words) [1]: very low solubility in water
SMILES: O=c1cncc(-c2ccccc2)n1O [Ligand 10a, 1-Hydroxy-6-phenylpyrazin-2(1H)-one]
time to complete reaction with ABTS radical cation [4]: ~3 min
Antioxidant activity as TEAC ([4]; t = 1 min): 0.66 mM
Antioxidant activity as TEAC ([4]; t = 3 min): 0.69 mM
Antioxidant activity as TEAC ([4]; t = 6 min): 0.70 mM
neuroprotection against 6-OHDA (in words) [8]: only marginal protection
% 6-OHDA Rescue (at 100 µM) [8]: 63%

SMILES: NCCc1cc(O)c(O)cc1O [Ligand 6-OHDA, 6-hydroxydopamine, reference compound]
decrease of cell viability ([8]; toxin only, 24 hours): approximately 50%

SMILES: O=c1cccc(CO)n1O [Ligand 2]
pKa [9, 12]: 6.02
log D7.4 of Fe^3+ complex ([11]; Fe^3+ complex of the ligand ref 28): −0.18
log D7.4 ([11]; free ligand ref 28): −1.71
% 6-OHDA Rescue (at 100 µM) [5]: 93%

SMILES: O=C(O)c1cccn(O)c1=O [Ligand 3]
pKa [9, 12]: 3.7
% 6-OHDA Rescue (at 100 µM) [5]: 84%

pKa [6]: 4
SMILES: O=c1cncc(-c2ccc(O)cc2)n1O [Ligand 10d, 1-Hydroxy-6-(4-hydroxyphenyl)-pyrazin-2(1H)-one]
neuroprotection against 6-OHDA (in words) [8]: partially prevented
% 6-OHDA Rescue (at 100 µM) [8]: 76%

solubility in water (in words) [1]: low water solubilities
melting point: 210.6 to 212.5 °C
SMILES: O=c1cncc(-c2ccc(F)cc2)n1O [Ligand 10c, 1-Hydroxy-6-(4-fluorophenyl)-pyrazin-2(1H)-one]

log K LH2 [6]: 0.2(2)
log K LH [6]: 3.98(5)
pKa [6]: 3.98
logD [7]: -0.4
log β FeL [10]: 7.83(1)
log β FeL2 [10]: 14.28(2)
log β FeL3 [10]: 20.19(4)
pL0.5 [10]: 3.13
SMILES: Cc1cncc(=O)n1O [Ligand 11a, 1-Hydroxy-6-methylpyrazin-2(1H)-one]
Antioxidant activity as TEAC ([4]; t = 1 min): 0.02 mM
Antioxidant activity as TEAC ([4]; t = 3 min): 0.03 mM
Antioxidant activity as TEAC ([4]; t = 6 min): 0.05 mM
% 6-OHDA Rescue (at 100 µM) [8]: 60%

pKa [6]: 5.53
solubility in the aqueous phase (in words) [1]: low solubilities
solubility in water (in words) [1]: very low solubility in water
SMILES: Cc1nc(Cc2ccccc2)c(=O)n(O)c1C [Ligand 6c, 1-Hydroxy-3-benzyl-5,6-dimethylpyrazin-2(1H)-one]
Antioxidant activity as TEAC ([4]; t = 1 min): 0.21 mM
Antioxidant activity as TEAC ([4]; t = 3 min): 0.31 mM
Antioxidant activity as TEAC ([4]; t = 6 min): 0.40 mM
neuroprotection against 6-OHDA (in words) [8]: partially prevented
% 6-OHDA Rescue (at 100 µM) [8]: 89%
cell viability restored [8]: ≥ 89%

SMILES: O=c1cnccn1O [unsubstituted 1-hydroxypyrazin-2(1H)-one, 1-hydroxypyrazin-2(1H)-one]
pKa ([9]; published previously ref 35): 4.4
